The supplement of paper PMC8671470

How the values were obtained:
Assay in all cases: cell viability (% survival relative to DMSO control, bortezomib = 0%); higher = less cytotoxic
Settings in all cases: 72 h
THP-1 = test system: THP-1
Summary of the method: (§1)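 Seeding density for each of the 10 AML and 5 CML cell lines was titrated to the linear growth range. Cells went into 384-well plates pre-printed in duplicate with compounds at 1, 10, 100, 1000 or 10000 nM and were held for 72 h at 37 °C with 5% CO2. CellTiter-Glo luminescence then provided the readout. Percent survival is expressed relative to vehicle at 100% and a 10 µM positive control at 0%, averaged over duplicates.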

K-562 = test system: K-562
Summary of the method: as §1

HL-60 = test system: HL-60
Summary of the method: as §1

MOLM-13 = test system: MOLM-13
Summary of the method: as §1

SMILES | cell viability (THP-1; 1 nM) | cell viability (THP-1; 10 nM) | cell viability (THP-1; 100 nM) | cell viability (THP-1; 1000 nM) | cell viability (THP-1; 10000 nM) | cell viability (K-562; 1 nM) | cell viability (K-562; 10 nM) | cell viability (K-562; 100 nM) | cell viability (K-562; 1000 nM) | cell viability (K-562; 10000 nM) | cell viability (HL-60; 1 nM) | cell viability (HL-60; 10 nM) | cell viability (HL-60; 100 nM) | cell viability (HL-60; 1000 nM) | cell viability (HL-60; 10000 nM) | cell viability (MOLM-13; 1 nM) | cell viability (MOLM-13; 10 nM) | cell viability (MOLM-13; 100 nM) | cell viability (MOLM-13; 1000 nM) | cell viability (MOLM-13; 10000 nM)
O=C(c1ccc(OCCN2CCCCC2)cc1)c1c(-c2ccc(O)cc2)sc2cc(O)ccc12 [Raloxifene] | 94.5% | 97% | 96.5% | 105% | 93.5% | 99.7% | 99.3% | 98.5% | 98.8% | 77.3% | 99.3% | 90.6% | 99.8% | 110% | 62.1% | 79.1% | 82.2% | 106% | 83.2% | 77%
O=C(O)c1nn(Cc2ccc(Cl)cc2Cl)c2ccccc12 [Lonidamine] | 107% | 97% | 102% | 99.3% | 101% | 94.2% | 104% | 118% | 98.4% | 82.6% | 100% | 119% | 90.2% | 82.2% | 105% | 102% | 113% | 116% | 91.3% | 98.4%
CC12CCC(O)CC1CCC1C2CCC2(C)C(C3=CC(=O)OC3)CCC12O (centres undefined) [Digitoxigenin] | 108% | 104% | 77% | 18.9% | -0.987% | 94.8% | 106% | 77.1% | 3.12% | -1.21% | 101% | 105% | 103% | 1.05% | -1.85% | 68.7% | 116% | 54.5% | 0.802% | -1.32%
CCOC(=O)[C@H]1O[C@@H]1C(=O)N[C@@H](CC(C)C)C(=O)NCCC(C)C [Aloxistatin] | 104% | 110% | 96.9% | 95.2% | 95.7% | 90.9% | 112% | 85.4% | 105% | 99.1% | 103% | 120% | 108% | 114% | 74% | 102% | 109% | 116% | 96.1% | 62.8%
Nc1ncnc2c1ncn2[C@@H]1O[C@H](CSCC[C@H](N)C(=O)O)[C@@H](O)[C@H]1O [S-Adenosyl Homocysteine] | 103% | 90.8% | 100% | 98.9% | 111% | 102% | 104% | 105% | 104% | 98.8% | 103% | 101% | 115% | 111% | 74.9% | 100% | 130% | 114% | 115% | 125%
Cc1c(-c2ccccc2)oc2c(C(=O)OCCN3CCCCC3)cccc2c1=O.Cl [Flavoxate] | 93.5% | 97.7% | 93.5% | 96.6% | 109% | 91% | 90% | 89.8% | 98.8% | 83.2% | 89.2% | 121% | 90.7% | 102% | 103% | 92.9% | 107% | 95.4% | 92.6% | 81.6%
Sc1ncnc2nc[nH]c12 [6-mercaptopurine] | 98.3% | 106% | 98.1% | 90.6% | 85.2% | 110% | 88.9% | 102% | 39.9% | 8.69% | 144% | 85.8% | 118% | 54.7% | 15.2% | 117% | 87.6% | 108% | 53% | 16%
CCOC(=O)N1c2ccc(C(F)(F)F)cc2[C@@H](N(Cc2cc(C(F)(F)F)cc(C(F)(F)F)c2)C(=O)OC)C[C@H]1CC [Torcetrapib] | 103% | 97.6% | 99.4% | 101% | 92.2% | 103% | 109% | 121% | 98.6% | 94.4% | 92.7% | 109% | – | 107% | 91% | 95.9% | 112% | 141% | 98.3% | 63.7%
C=CCc1ccc2c(c1O)C(=O)c1ccccc1C2=O [R162] | 101% | 99.1% | 102% | 109% | 109% | 99.5% | 95.2% | 94% | 118% | 98.5% | 98.1% | 104% | 95.6% | 92.5% | 101% | 94% | 107% | 106% | 136% | 99.2%
O=C(COc1ccc(C(=O)c2ccccc2)cc1)NC1CCN(Cc2ccccc2)CC1 [AdipoRon] | 96.2% | 98.8% | 102% | 91.6% | 104% | 90.2% | 105% | 79.7% | 104% | 58.3% | 102% | 118% | 81.9% | 111% | 70% | 94% | 106% | 93.6% | 105% | 76.5%
OCCN1CCN(CCCN2c3ccccc3Sc3ccc(Cl)cc32)CC1 [Perphenazine] | 95.7% | 99.2% | 103% | 99.1% | 50.2% | 108% | 97.3% | 81.8% | 92% | 0.308% | 97.8% | 133% | 92% | 103% | 18.8% | 114% | 68.9% | 84% | 140% | 18.5%
O=C(O)C(Cl)Cl [Dichloroacetate] | 100% | 98% | 103% | 95.8% | 102% | 96.5% | 108% | 93% | 96.2% | 105% | 96.5% | 115% | 104% | 109% | 120% | 95.9% | 99.5% | 97.7% | 89.4% | 102%
O=C1Oc2ccccc2C(=O)C1CC1C(=O)Oc2ccccc2C1=O (centres undefined) [Dicumarol] | 100% | 102% | 96.3% | 103% | 94.2% | 95.1% | 106% | 97.2% | 100% | 95.8% | 98.3% | 102% | 101% | 104% | 112% | 105% | 109% | 107% | 120% | 97.1%
O=C(O)CC[C@H](NC(=O)c1ccc([N+](=O)[O-])cc1)C(=O)O [(S)-2-(4-Nitrobenzamido)pentanedioic acid] | 102% | 107% | 93.7% | 105% | 95.5% | 76.6% | 91.8% | 84.6% | 102% | 110% | 78% | 107% | 113% | 83.6% | 93.7% | 89% | 124% | 94.6% | 98.5% | 105%
CC(C(=O)O)C(=O)O [Methylmalonate] | 98.5% | 94.5% | 101% | 103% | 87.6% | 95.3% | 101% | 106% | 95.2% | 107% | 84.9% | 104% | 92.2% | 116% | 90.1% | 107% | 86.8% | 124% | 78.3% | 89.2%
C#Cc1cnc(O)nc1O [Eniluracil] | 97.4% | 102% | 109% | 110% | 102% | 101% | 113% | 113% | 102% | 94.5% | 112% | 134% | 123% | 95.1% | 111% | 75.5% | 108% | 114% | 91.4% | 104%
O=C(O)c1cc2sccc2[nH]1 [4H-thieno[3,2-b]pyrrole-5-carboxylic acid] | 105% | 102% | 106% | 97.7% | 105% | 86.6% | 106% | 101% | 101% | 105% | 117% | 104% | 90.6% | 69.1% | 95.3% | 103% | 94.7% | 89.3% | 112% | 109%
CC(/C=C1\SC(=S)N(CC(=O)O)C1=O)=C\c1ccccc1 [Epalrestat] | 101% | 95.6% | 115% | 102% | 103% | 114% | 102% | 109% | 99.5% | 100% | 120% | 102% | 109% | 112% | 115% | 120% | 106% | 106% | 99.1% | 110%
C1CCc2nnc(C34CC5CC(CC(C5)C3)C4)n2CC1 [MERCK-544] | 102% | 107% | 93.7% | 102% | 91.1% | 109% | 117% | 89.3% | 103% | 129% | 94.7% | 154% | 103% | 74.8% | 129% | 97.3% | 126% | 115% | 80.7% | 118%
CC(C)Cc1sc(N)nc1-c1ccc(P(=O)(O)O)o1 | 107% | 103% | 98.3% | 104% | 95.5% | 104% | 118% | 109% | 103% | 92.5% | 56.2% | 90.1% | 72.8% | 105% | 67% | 134% | 97% | 102% | 113% | 104%
COc1cc2c(NC3CCN(C)CC3)nc(N3CCCN(C)CC3)nc2cc1OCCCN(C)C [UNC0224] | 103% | 102% | 93.8% | 93% | 79.7% | 95% | 106% | 102% | 102% | 88.8% | 92.3% | 123% | 97.8% | 89.5% | 65.1% | 104% | 111% | 92.7% | 104% | 71.1%
[N-]=[N+]=CC(=O)CC[C@H](N)C(=O)O [6-Diazo-5-oxo-L-norleucine] | 98.1% | 96.7% | 100% | 102% | 106% | 70.8% | 99.6% | 99.5% | 104% | 92.5% | 64.7% | 83.2% | 135% | 97.5% | 106% | 106% | 111% | 119% | 101% | 116%
CN(C/C=C/C#CC(C)(C)C)Cc1cccc2ccccc12 [Terbinafine] | 102% | 94.6% | 92% | 100% | 94.4% | 97.8% | 98% | 106% | 86.1% | 88.8% | 104% | 107% | 118% | 105% | 93.8% | 105% | 98.5% | 133% | 90.2% | 113%
N[C@](CCCCB(O)O)(CCN1CCCCC1)C(=O)O [Arginase inhibitor 1] | 105% | 88.6% | 101% | 99% | 102% | 120% | 102% | 93.1% | 90.6% | 88.4% | 131% | 104% | 73.9% | 106% | 117% | 106% | 99.8% | 117% | 74.4% | 72%
Nc1ccn([C@@H]2O[C@H](CO)[C@@H](O)[C@@H]2O)c(=O)n1 [Cytarabine] | 103% | 104% | 89.9% | 91.7% | 23.8% | 104% | 70% | 57.6% | 32.4% | 24.4% | 100% | 95.1% | 82.3% | 28% | 0.475% | 112% | 86.4% | 45.7% | 4.2% | 0.262%
C1CCC(C(CC2CCCCN2)C2CCCCC2)CC1.O=C(O)/C=C\C(=O)O (centres undefined) [Perhexiline] | 101% | 93.8% | 100% | 89% | -0.129% | 98.5% | 97.3% | 110% | 103% | 0.792% | 91.2% | 90.1% | 110% | 93% | -0.124% | 83.3% | 99.8% | 112% | 88.2% | 3.56%
Cc1coc2c1C(=O)C(=O)c1c-2ccc2c(C)cccc12 [Tanshinone I] | 109% | 102% | 98.9% | 103% | 90.1% | 98.6% | 100% | 106% | 82.7% | 79.8% | 99% | 105% | 117% | 105% | 79.7% | 89.8% | 103% | 127% | 94.3% | 101%
